Measurements from patent EP0212404A1, “7-oxo-4-thia-1-azabicyclo [3.2.0] hept-2-ene derivatives” (HOECHST AKTIENGESELLSCHAFT, priority 1985, dated 1987).
Values after ≈ are worked out from the molar mass of the structure shown. Read-outs that look alike come from different tables or passages of the source.

What was measured:
Assay in all cases: agar dilution test (MIC)
Type in all cases: cell-based
[1] = system: E.coli 055; details: Escherichia coli, Mueller Hinton agar, 16 to 18 hours at 37°C, read-out: Minimum Inhibitory Concentration (MIC)
Procedure: (§1) The antimicrobial activity was determined by measuring the Minimum Inhibitory Concentration (MIC). The MIC of the compounds was determined by a standard test, the "agar dilution test" according to Lorian (Antibiotics in Laboratory Medicine, Williams and Wilkins, Baltimore/London 1980) as follows:
(§2) A two-fold decreasing concentration series of each compound was prepared in Petri dishes containing 15 ml of Mueller Hinton agar (Difco). One Petri dish containing only the Mueller Hinton agar served as control for bacterial growth. Each Petri dish was inoculated with a multi-point inoculator (Denley), which transferred 0.6µl of a 1:100 diluted 18 hours culture of the appropriate test bacterium. After 16 to 18 hours of incubation at 37°C the Petri dishes were examined for growth of bacteria. The lowest concentration of the compound which causes complete inhibition of growth is taken as the MIC except that the growth of a single colony or a haze is not taken as evidence of qrowth.

[2] = system: Kl.aerog. 1522E; details: read-out: Minimum Inhibitory Concentration (MIC)
Procedure: as §1, §2

[3] = system: Staph.aureus 285; details: Staphylococcus aureus, Mueller Hinton agar, 16 to 18 hours at 37°C, read-out: Minimum Inhibitory Concentration (MIC)
Procedure: as §1, §2

[4] = system: E.coli DC2; details: Escherichia coli, Mueller Hinton agar, 16 to 18 hours at 37°C, read-out: Minimum Inhibitory Concentration (MIC)
Procedure: as §1, §2

[5] = system: Staph.aureus SG511; details: Staphylococcus aureus, Mueller Hinton agar, 16 to 18 hours at 37°C, read-out: Minimum Inhibitory Concentration (MIC)
Procedure: as §1, §2

[6] = system: E.coli DC0; details: Escherichia coli, Mueller Hinton agar, 16 to 18 hours at 37°C, read-out: Minimum Inhibitory Concentration (MIC)
Procedure: as §1, §2

[7] = system: Str.pyogenes 77A; details: Streptococcus pyogenes, Mueller Hinton agar, 16 to 18 hours at 37°C, read-out: Minimum Inhibitory Concentration (MIC)
Procedure: as §1, §2

[8] = system: Ent.cloacae 1321E; details: Enterobacter cloacae, read-out: Minimum Inhibitory Concentration (MIC)
Procedure: as §1, §2

[9] = system: Ent.cloacae P99; details: Enterobacter cloacae, Mueller Hinton agar, 16 to 18 hours at 37°C, read-out: Minimum Inhibitory Concentration (MIC)
Procedure: as §1, §2

[10] = system: Staph.aureus 503; details: Staphylococcus aureus, Mueller Hinton agar, 16 to 18 hours at 37°C, read-out: Minimum Inhibitory Concentration (MIC)
Procedure: as §1, §2

[11] = system: Str.pyogenes 308A; details: Streptococcus pyogenes, Mueller Hinton agar, 16 to 18 hours at 37°C, read-out: Minimum Inhibitory Concentration (MIC)
Procedure: as §1, §2

[12] = system: Kl.aerog. 1082E; details: Mueller Hinton agar, 16 to 18 hours at 37°C, read-out: Minimum Inhibitory Concentration (MIC)
Procedure: as §1, §2

[13] = system: Str.faecium D; details: Enterococcus faecium; Str.faecium D; Mueller Hinton agar, 16 to 18 hours at 37°C; read-out: Minimum Inhibitory Concentration (MIC)
Procedure: as §1, §2

[14] = system: E.coli TEM; details: Escherichia coli, read-out: Minimum Inhibitory Concentration (MIC)
Procedure: as §1, §2

[15] = system: E.coli 1507E; details: Escherichia coli, read-out: Minimum Inhibitory Concentration (MIC)
Procedure: as §1, §2

[16] = system: Bac.subt. ATCC6633; details: Mueller Hinton agar, 16 to 18 hours at 37°C, read-out: Minimum Inhibitory Concentration (MIC)
Procedure: as §1, §2

[17] = system: E.coli KN126; details: Escherichia coli, Mueller Hinton agar, 16 to 18 hours at 37°C, read-out: Minimum Inhibitory Concentration (MIC)
Procedure: as §1, §2

[18] = system: Salm.typh. MZII; details: Mueller Hinton agar, 16 to 18 hours at 37°C, read-out: Minimum Inhibitory Concentration (MIC)
Procedure: as §1, §2

[19] = Kl.aerog. 1522E, Mueller Hinton agar, 16 to 18 hours at 37°C
[20] = Ent.cloacae 1321E, Mueller Hinton agar, 16 to 18 hours at 37°C
[21] = E.coli 1507E, Mueller Hinton agar, 16 to 18 hours at 37°C

Structure (SMILES) | MIC [1] [µg/mL] | MIC [2, 19] [µg/mL] | MIC [3] [µg/mL] | MIC [4] [µg/mL] | MIC [5] [µg/mL] | MIC [6] [µg/mL] | MIC [7] [µg/mL] | MIC [8, 20] [µg/mL] | MIC [9] [µg/mL] | MIC [10] [µg/mL] | MIC [11] [µg/mL] | MIC [12] [µg/mL] | MIC [13] [µg/mL] | MIC [14] [µg/mL] | MIC [15, 21] [µg/mL] | MIC [16] [µg/mL] | MIC [17] [µg/mL] | MIC [2] [µg/mL] | MIC ([8]; 1321E) [µg/mL] | MIC ([15]; 1507E) [µg/mL] | further results
C[C@@H](O)[C@H]1C(=O)N2C(C(=O)O)=C(c3cccc(C(N)=O)c3)S[C@H]12 [Example 3-CONH2, 5R,3-(3-aminocarbonylphenyl)-6S-(1R-hydroxyethyl)-7-oxo-4-thia-l-azabicyclo[3.2.0]hept-2-ene-2-carboxylate] | 0.1 (≈ 0.299 µM) | 0.19 (≈ 0.568 µM) | 0.1 (≈ 0.299 µM) | 0.1 (≈ 0.299 µM) | 0.05 (≈ 0.15 µM) | 0.39 (≈ 1.17 µM) | 0.013 (≈ 0.0389 µM) | 0.1 (≈ 0.299 µM) | 1.56 (≈ 4.67 µM) | 0.1 (≈ 0.299 µM) | 0.006 (≈ 0.0179 µM) | 0.1 (≈ 0.299 µM) | 1.56 (≈ 4.67 µM) | 0.19 (≈ 0.568 µM) | 0.19 (≈ 0.568 µM) | 0.05 (≈ 0.15 µM) | 0.1 (≈ 0.299 µM) |  |  |  | 
C[C@@H](O)[C@H]1C(=O)N2C(C(=O)O)=C(c3cccc(NC=O)c3)S[C@H]12 [Example 3-NHCHO, 3-(3-formylaminophenyl)-6-(1-hydroxyethyl)-7-oxo-4-thia-l-azabicyclo[3.2.0]hept-2-ene 2-carboxylic acid] | 0.39 (≈ 1.17 µM) | 0.39 (≈ 1.17 µM) | 0.19 (≈ 0.568 µM) | 0.39 (≈ 1.17 µM) | 0.1 (≈ 0.299 µM) | 1.56 (≈ 4.67 µM) | < 0.025 | 0.39 (≈ 1.17 µM) | 12.5 (≈ 37.4 µM) | 0.19 (≈ 0.568 µM) | < 0.025 | 0.39 (≈ 1.17 µM) | 1.56 (≈ 4.67 µM) | 0.78 (≈ 2.33 µM) | 0.78 (≈ 2.33 µM) | 0.1 (≈ 0.299 µM) | 0.39 (≈ 1.17 µM) |  |  |  | 
CSc1cccc(C2=C(C(=O)O)N3C(=O)[C@H]([C@@H](C)O)[C@H]3S2)c1 [Example 3-SCH3] | 3.13 (≈ 9.28 µM) |  | 0.19 (≈ 0.563 µM) | 0.39 (≈ 1.16 µM) | 0.1 (≈ 0.296 µM) | 12.5 (≈ 37 µM) | < 0.05 |  | 50 (≈ 148 µM) | 0.19 (≈ 0.563 µM) | < 0.05 | 0.39 (≈ 1.16 µM) | 1.56 (≈ 4.62 µM) | 6.25 (≈ 18.5 µM) |  | 0.05 (≈ 0.148 µM) | 6.25 (≈ 18.5 µM) | 6.25 (≈ 18.5 µM) | 6.25 (≈ 18.5 µM) | 6.25 (≈ 18.5 µM) | 
CC(O)C1C(=O)N2C(C(=O)O)=C(c3ccc(C(N)=O)cc3)SC12 (centres unmarked) [Example 4-CONH2, 3-(4-aminocarbonylphenyl)-6-(1-hydroxyethyl)-7-oxo-4-thia-1-azabicyclo[3.2.0]hept-2-ene 2-carboxylic acid] | 0.19 (≈ 0.568 µM) | 0.39 (≈ 1.17 µM) | 0.1 (≈ 0.299 µM) | 0.39 (≈ 1.17 µM) | 0.05 (≈ 0.15 µM) | 0.78 (≈ 2.33 µM) | 0.013 (≈ 0.0389 µM) | 0.39 (≈ 1.17 µM) | 6.25 (≈ 18.7 µM) | 0.1 (≈ 0.299 µM) | 0.013 (≈ 0.0389 µM) | 0.39 (≈ 1.17 µM) | 1.56 (≈ 4.67 µM) | 0.39 (≈ 1.17 µM) | 0.39 (≈ 1.17 µM) | 0.05 (≈ 0.15 µM) | 0.39 (≈ 1.17 µM) |  |  |  | 
C[C@@H](O)[C@H]1C(=O)N2C(C(=O)O)=C(c3ccc(Cl)cc3)S[C@H]12 [Example 4-Cl] | 3.13 (≈ 9.61 µM) |  | 0.1 (≈ 0.307 µM) | 0.39 (≈ 1.2 µM) | 0.05 (≈ 0.153 µM) | 25 (≈ 76.7 µM) | < 0.05 |  | 50 (≈ 153 µM) | 0.1 (≈ 0.307 µM) | < 0.05 | 0.78 (≈ 2.39 µM) | 1.56 (≈ 4.79 µM) | 12.5 (≈ 38.4 µM) |  | 0.05 (≈ 0.153 µM) | 12.5 (≈ 38.4 µM) | 12.5 (≈ 38.4 µM) | 6.25 (≈ 19.2 µM) | 12.5 (≈ 38.4 µM) | MIC [18]: 6.25 µg/mL (≈ 19.2 µM)
